In patent publication US5492918A, “Use of substituted chromans, some of which are known, as medicaments, new active compounds and processes for their preparation” (Bayer Aktiengesellschaft, priority 1993, dated 1996):
Where two headings read alike, the source gives them in different places.

How the values were obtained:
HIV protease = target: T1, HIV protease (Human immunodeficiency virus type 1 group M subtype B, UniProt P04585); assay: biochemical; settings: for inhibition at 200 µg/mL: read-out: % Inhibition at 200 μg/ml
T1 construct: purified HIV protease
Experimental: This is confirmed by an HIV-specific protease enzyme test.
The results of the examples shown below were determined by the HIV test system described in the following bibliographical references [cf. Hansen, J., Billich, S., Schulze, T., Sukrow, S. and Molling, K. (1988), EMBO Journal, Vol, 7, No. 6, pp. 1785-1791]: purified HIV protease was incubated with synthetic peptide which imitated a cleavage site in the Gag precursor protein and is an in vivo cleavage site of HIV protease. The resultant cleavage products of the synthetic peptide were analysed by means of reverse phase high performance liquid chromatography (RP-HPLC). The IC50 values indicated relate to the substance concentration which, under the abovementioned test conditions, causes a 50% inhibition of protease activity.

HIV = HIV infection in cell culture: suppression of virus-induced syncytia in human blood lymphocytes (PBL); format: cell-based; settings: Human immunodeficiency virus 1, 72 h, 50% of virus-induced syncytia suppressed, day 3 to 6 after infection
Experimental: The HIV test was carried out with slight modifications by the method of Pauwels et al,. [cf. Journal of Virological Methods 20, (1988) , 309-321].
Normal human blood lymphocytes (PBLs) were concentrated on Ficoll Hypaque and stimulated with phytohaemagglutinin (90 μg/ml) and interleukin-2 (40 U/ml) in RPMI 1640, 20% foetal calf serum. For infection with the infectious HIV, PBLs were pelleted and the cell pellet was then suspended in 1 ml of HIV virus adsorption solution and incubated at 37° C for 1 hour.
Alternatively, HIV-susceptible H9 cells were employed instead of normal human blood lymphocytes for testing of the antiviral effects of the compounds according to the invention.
The virus adsorption solution was centrifuged and the infected cell pellet was taken up in growth medium such that a concentration of 1×10^5 cells per ml was set. The cells infected in this way were pipetted at 1×10^4 cells/well into the wells of 96-well microtitre plates.
The first vertical row of the microtitre plate contained only growth medium and cells which had not been infected but otherwise treated exactly as described above (cell control). […]
The test batches were incubated at 37° C until the syncytia formation typical of HIV occurred in the untreated virus control (between day 3 and 6 after infection), which was then assessed microscopically. […]

[1] = 200 μg/ml, purified HIV protease, synthetic peptide substrate, RP-HPLC

Compound | inhibition at 200 µg/mL (HIV protease) | inhibition at 200 µg/mL (HIV protease; [1]) | further results
O=c1[nH]c2ccccc2n1C1CCN(CC2CCc3cccc(O)c3O2)CC1 (racemic) [Example 33, 8-Hydroxy-2-[4-(2-oxo-1-benzimidazolyl)piperidylmethyl]-chroman] | 99% | – | –
COc1cccc2c1OC(C(=O)N1CCC(NC(=O)Nc3ccccc3)CC1)CC2 (centres unmarked) [Example 1, 8-Methoxy-2-[4-(phenylaminocarbonyl-amino)piperidylcarbonyl]-chroman] | – | 99% | –
O=C(C1CCc2ccccc2O1)N1CCC(n2c(=O)[nH]c3ccccc32)CC1 (centres unmarked) [Example 21] | – | 65% | –
COc1cccc2c1OC(C(=O)N1CCC(n3c(=O)[nH]c4ccccc43)CC1)CC2 (centres unmarked) [Example 24] | – | 99% | –
COc1cccc2c1O[C@H](C(=O)N1CCC(n3c(=O)[nH]c4ccccc43)CC1)CC2 [Example 25] | – | 74% | –
O=c1[nH]c2ccccc2n1C1CCN(CC2CCc3ccccc3O2)CC1 (centres unmarked) [Example 27] | 81% | – | –
O=c1[nH]c2ccccc2n1C1CCN(C[C@@H]2CCc3ccccc3O2)CC1 [Example 28] | 94% | – | –
COc1cccc2c1OC(CN1CCC(n3c(=O)[nH]c4ccccc43)CC1)CC2 (centres unmarked) [Example 30] | 99% | – | IC50 (HIV protease; 50% inhibition of protease activity, purified HIV protease, synthetic peptide substrate): 0.0002 µM; IC50 (HIV): 10 µM
COc1cccc2c1O[C@H](CN1CCC(n3c(=O)[nH]c4ccccc43)CC1)CC2 [Example 31] | – | – | IC50 (HIV): 10 µM
